Test system: SARS-CoV-2 strain USA-WA1/2020
Experiment: microbe, parasite or virus in culture
Assay type: cell-based
Conditions: Severe acute respiratory syndrome coronavirus 2, HeLa-ACE2, 24 h, HeLa-ACE2 cells, SARS-CoV-2 infection, 24 h; read-out: EC50, uM (Hela)

SMILES | EC50
CC(C)(C)CCC(=O)N1CC2(CC2)C[C@H]1C(=O)N[C@@H](C[C@@H]1CCNC1=O)C(=O)COC(F)(F)F [Compound 459, (S)-5-(4,4-dimethylpentanoyl)-N-((S)-3-oxo-1-((S)-2-oxopyrrolidin-3-yl)-4-(trifluoromethoxy)butan-2-yl)-5-azaspiro[2.4]heptane-6-carboxamide] | < 0.05 µM
O=C(N[C@@H](Cc1ccccc1)C(=O)N[C@@H](C[C@@H]1CCNC1=O)C(=O)COC(F)(F)F)c1cc(-c2ccccc2F)on1 [Compound 460, 5-(2-fluorophenyl)-N-((S)-1-oxo-1-(((S)-3-oxo-1-((S)-2-oxopyrrolidin-3-yl)-4-(trifluoromethoxy)butan-2-yl)amino)-3-phenylpropan-2-yl)isoxazole-3-carboxamide] | < 0.05 µM
O=C(N[C@@H](CC1CC1)C(=O)N[C@@H](C[C@@H]1CCNC1=O)C(=O)COC(F)(F)F)c1nnc(Nc2ccccc2)o1 [Compound 461, N-((S)-3-cyclopropyl-1-oxo-1-(((S)-3-oxo-1-((S)-2-oxopyrrolidin-3-yl)-4-(trifluoromethoxy)butan-2-yl)amino)propan-2-yl)-5-(phenylamino)-l,3,4-oxadiazole-2-carboxamide] | 0.2 to 0.5 µM
O=C(N[C@@H](CC1CC1)C(=O)N[C@@H](C[C@@H]1CCNC1=O)C(=O)COC(F)(F)F)c1cc(Cc2ccccc2)on1 [Compound 462, 5-benzyl-N-((S)-3-cyclopropyl-1-oxo-1-(((S)-3-oxo-1-((S)-2-oxopyrrolidin-3-yl)-4-(trifluoromethoxy)butan-2-yl)amino)propan-2-yl)isoxazole-3-carboxamide] | < 0.05 µM
CC(C)C[C@H](NC(=O)c1cc(-c2ccccn2)on1)C(=O)N[C@@H](C[C@@H]1CCNC1=O)C(=O)COC(F)(F)F [Compound 464, N-((S)-4-methyl-1-oxo-1-(((S)-3-oxo-1-((S)-2-oxopyrrolidin-3-yl)-4-(trifluoromethoxy)butan-2-yl)amino)pentan-2-yl)-5-(pyridin-2-yl)isoxazole-3-carboxamide] | < 0.05 µM
CC(C)C[C@H](Nc1cc2ccccc2[nH]c1=O)C(=O)N[C@@H](C[C@@H]1CCNC1=O)C(=O)COC(F)(F)F [Compound 465, (S)-4-methyl-2-((2-oxo-1,2-dihydroquinolin-3-yl)amino)-N-((S)-3-oxo-1-((S)-2-oxopyrrolidin-3-yl)-4-(trifluoromethoxy)butan-2-yl)pentanamide] | 0.2 to 0.5 µM
COc1cccc2cc(C(=O)N[C@@H](CC(C)C)C(=O)N[C@@H](C[C@@H]3CCNC3=O)C(=O)COC(F)(F)F)oc12 [Compound 466, 7-methoxy-N-((S)-4-methyl-1-oxo-1-(((S)-3-oxo-1-((S)-2-oxopyrrolidin-3-yl)-4-(trifluoromethoxy)butan-2-yl)amino)pentan-2-yl)benzofuran-2-carboxamide] | < 0.05 µM
O=C(NC1CCCCC1)C(=O)N1C[C@@H]2CCC[C@@H]2[C@H]1C(=O)N[C@@H](C[C@@H]1CCNC1=O)C(=O)COC(F)(F)F [Compound 467, (1S,3aR,6aS)-2-(2-(cyclohexylamino)-2-oxoacetyl)-N-((S)-3-oxo-1-((S)-2-oxopyrrolidin-3-yl)-4-(trifluoromethoxy)butan-2-yl)octahydrocyclo-penta[c]pyrrole-1-carboxamide] | 0.5 to 1 µM
CC1(C)[C@@H]2[C@@H](C(=O)N[C@@H](C[C@@H]3CCNC3=O)C(=O)COC(F)(F)F)N(C(=O)c3csc(C(F)(F)F)n3)C[C@@H]21 [Compound 468, (1R,2S,5S)-6,6-dimethyl-N-((S)-3-oxo-1-((S)-2-oxopyrrolidin-3-yl)-4-(trifluoromethoxy)butan-2-yl)-3-(2-(trifluoromethyl)-thiazole-4-carbonyl)-3-azabicyclo[3.1.0]-hexane-2-carboxamide] | 0.05 to 0.2 µM
CC1(NC(=O)C(=O)N2C[C@H]3[C@@H]([C@H]2C(=O)N[C@@H](C[C@@H]2CCNC2=O)C(=O)COC(F)(F)F)C3(C)C)CC1 [Compound 469, (1R,2S,5S)-6,6-dimethyl-3-(2-((l-methylcyclopropyl)-amino)-2-oxoacetyl)-N-((S)-3-oxo-1-((S)-2-oxopyrrolidin-3-yl)-4-(trifluoromethoxy)butan-2-yl)-3-azabicyclo[3.1.0]-hexane-2-carboxamide] | 0.05 to 0.2 µM
CC1(C)[C@@H]2[C@@H](C(=O)N[C@@H](C[C@@H]3CCCNC3=O)C(=O)COC(F)(F)F)N(C(=O)C(=O)NC3CCCCC3)C[C@@H]21 [Compound 470, (1R,2S,5S)-3-(2-(cyclohexylamino)-2-oxoacetyl)-6,6-dimethyl-N-((S)-3-oxo-1-((S)-2-oxopiperidin-3-yl)-4-(trifluoromethoxy)butan-2-yl)-3-azabicyclo[3.1.0]-hexane-2-carboxamide] | < 0.05 µM
CC(C)(NC(=O)C(=O)N1Cc2ccccc2C[C@H]1C(=O)N[C@@H](C[C@@H]1CCNC1=O)C(=O)COC(F)(F)F)C(F)(F)F [Compound 472, (S)-N-((S)-3-oxo-1-((S)-2-oxopyrrolidin-3-yl)-4-(trifluoromethoxy)butan-2-yl)-2-(2-oxo-2-((1,1,1-trifluoro-2-methylpropan-2-yl)amino)acetyl)-1,2,3,4-tetrahydro-isoquinoline-3-carboxamide] | 0.05 to 0.2 µM
Cc1ccccc1NC(=O)C(=O)N1C[C@H]2[C@@H]([C@H]1C(=O)N[C@@H](C[C@@H]1CCNC1=O)C(=O)COC(F)(F)F)C2(C)C [Compound 473, (1R,2S,5S)-6,6-dimethyl-N-((S)-3-oxo-1-((S)-2-oxopyrrolidin-3-yl)-4-(trifluoromethoxy)butan-2-yl)-3-(2-oxo-2-(o-tolylamino)acetyl)-3-azabicyclo[3.1.0]hexane-2-carboxamide] | < 0.05 µM
CC1(C)[C@@H]2[C@@H](C(=O)N[C@@H](C[C@@H]3CCNC3=O)C(=O)COC(F)(F)F)N(C(=O)C(=O)NC3(C(F)(F)F)CC3)C[C@@H]21 [Compound 475, (1R,2S,5S)-6,6-dimethyl-N-((S)-3-oxo-1-((S)-2-oxopyrrolidin-3-yl)-4-(trifluoromethoxy)butan-2-yl)-3-(2-oxo-2-((1-(trifluoromethyl)-cyclopropyl)amino)acetyl)-3-zabicyclo[3.1.0]hexane-2-carboxamide] | 0.05 to 0.2 µM
O=C1NCC[C@H]1C[C@H](NC(=O)[C@@H]1[C@H]2CCC[C@H]2CN1C(=O)c1csc(C(F)(F)F)n1)C(=O)COC(F)(F)F [Compound 476, (1S,3aR,6aS)-N-((S)-3-oxo-1-((S)-2-oxopyrrolidin-3-yl)-4-(trifluoromethoxy)butan-2-yl)-2-(2-(trifluoromethyl)-thiazole-4-carbonyl)-octahydrocyclo-penta[c]pyrrole-1-carboxamide] | < 0.05 µM
CC(C)(F)c1cc(C(=O)N2C[C@H]3[C@@H]([C@H]2C(=O)N[C@@H](C[C@@H]2CCNC2=O)C(=O)COC(F)(F)F)C3(C)C)no1 [Compound 478, (1R,2S,5S)-3-(5-(2-fluoropropan-2-yl)isoxazole-3-carbonyl)-6,6-dimethyl-N-((S)-3-oxo-1-((S)-2-oxopyrrolidin-3-yl)-4-(trifluoromethoxy)butan-2-yl)-3-azabicyclo[3.1.0]hexane-2-carboxamide] | < 0.05 µM
O=C(Nc1ccccc1F)C(=O)N1CC2(C[C@H]1C(=O)N[C@@H](C[C@@H]1CCNC1=O)C(=O)COC(F)(F)F)CC2(F)F (stereo partly drawn) [Compound 482, (6S)-1,1-difluoro-5-(2-((2-fluorophenyl)amino)-2-oxoacetyl)-N-((S)-3-oxo-1-((S)-2-oxopyrrolidin-3-yl)-4-(trifluoromethoxy)butan-2-yl)-5-azaspiro[2.4]heptane-6-carboxamide] | 0.05 to 0.2 µM
O=C1NCC[C@H]1C[C@H](NC(=O)[C@@H]1[C@H]2CCC[C@H]2CN1C(=O)c1cc(C(F)(F)F)on1)C(=O)COC(F)(F)F [Compound 483, (1S,3aR,6aS)-N-((S)-3-oxo-1-((S)-2-oxopyrrolidin-3-yl)-4-(trifluoromethoxy)butan-2-yl)-2-(5-(trifluoromethyl)-isoxazole-3-carbonyl)octahydro-cyclopenta[c]pyrrole-l-carboxamide] | 0.05 to 0.2 µM
CC(F)(F)CNC(=O)C(=O)N1C[C@H]2[C@@H]([C@H]1C(=O)N[C@@H](C[C@@H]1CCNC1=O)C(=O)COC(F)(F)F)C2(C)C [Compound 484, (1R,2S,5S)-3-(2-((2,2-difluoropropyl)amino)-2-oxoacetyl)-6,6-dimethyl-N-((S)-3-oxo-1-((S)-2-oxopyrrolidin-3-yl)-4-(trifluoromethoxy)butan-2-yl)-3-azabicyclo[3.1.0]-hexane-2-carboxamide] | 0.05 to 0.2 µM
CC1(C)[C@@H]2[C@@H](C(=O)N[C@@H](C[C@@H]3CCNC3=O)C(=O)COC(F)(F)F)N(C(=O)C(=O)NC34CC(F)(C3)C4)C[C@@H]21 [Compound 486, (1R,2S,5S)-3-(2-((3-fluorobicyclo[1.1.1]-pentan-1-yl)amino)-2-oxoacetyl)-6,6-dimethyl-N-((S)-3-oxo-1-((S)-2-oxopyrrolidin-3-yl)-4-(trifluoromethoxy)butan-2-yl)-3-azabicyclo[3.1.0]-hexane-2-carboxamide] | 0.05 to 0.2 µM
CC(C)(NC(=O)C(=O)N1C[C@H]2CCCC[C@H]2C[C@H]1C(=O)N[C@@H](C[C@@H]1CCNC1=O)C(=O)COC(F)(F)F)C(F)(F)F [Compound 487, (3S,4aS,8aS)-N-((S)-3-oxo-1-((S)-2-oxopyrrolidin-3-yl)-4-(trifluoromethoxy)butan-2-yl)-2-(2-oxo-2-((1,1,1-trifluoro-2-methylpropan-2-yl)amino)acetyl)-decahydroiso-quinoline-3-carboxamide] | 0.05 to 0.2 µM
CC1(C)[C@@H]2[C@@H](C(=O)N[C@@H](C[C@@H]3CCNC3=O)C(=O)COC(F)(F)F)N(C(=O)c3cc(C(F)(F)F)no3)C[C@@H]21 [Compound 488, (1R,2S,5S)-6,6-dimethyl-N-((S)-3-oxo-1-((S)-2-oxo-pyrrolidin-3-yl)-4-(trifluoromethoxy)butan-2-yl)-3-(3-(trifluoromethyl)-isoxazole-5-carbonyl)-3-azabicyclo[3.1.0]-hexane-2-carboxamide] | 0.05 to 0.2 µM

Reference: patent US11708348B2, “Protease inhibitors for treatment of coronavirus infections” (The Scripps Research Institute, priority 2021, dated 2023)
